Results from US20250304623A1, “PEPTIDES FOR INTRACELLULAR DELIVERY” (UNIVERSIDADE DE SANTIAGO DE COMPOSTELA, priority 2022, published 2025).
*: point of attachment. NHNH2 = NN*

Legend:
Format in all cases: cell-based
[1] = system: HCT116 cells; assay: RLuc pDNA delivery, robotic library screening, HCT116
[2] = system: A549 cells expressing EGFP; assay: EGFP-targeting siRNA delivery (GFP silencing vs siMOCK), A549; conditions: A549 cells
Procedure: (§1) To generate an EGFP expressing HeLa cell line, HeLa cells were transfected with EGFP pDNA (pEGFP-C1, Clontech) and stable transfectants were selected with 400 μg/mL of G-418 (Millipore). Green clones were selected by epifluorescence microscopy and tested for EGFP expression stability through several passages. […] All other EGFP-expressing cell lines were obtained in a similar way from parent non-EGFP-expressing cell lines.
Cells expressing EGFP were seeded in a 96 well plate the day before the experiment at a concentration of 50,000 cell/mL (100 μL/w) in DMEM+10% FBS+1% Gln-Abt. For robotic library screening, the delivery of an EGFP-targeting siRNA (EGFP: enhanced green fluorescent protein, Ambion® Silencer® GFP Positive Control siRNA (siGFP) (AM4626)) in six different cell lines expressing EGFP was performed. […] The mixture was shaken for 30 min at room temperature (rt) before the addition to the cells. The cell medium was aspirated, and cells were washed twice with PBS. Finally, 50 μL of the solution of siRNA/amphiphile complexes were added to the cells and incubated for 4 h. After transfection, the medium was replaced by 100 μL of fresh DMEM supplemented with 10% FBS. The fluorescence knockdown was quantified after 72 h in a plate reader, by comparison with cells transfected with a non-targeting siRNA control (siMOCK, Silencer™ Negative Control No. 1 siRNA (siMOCK) (AM4611)). EGFP knockdown was compared with Lipofectamine® RNAiMAX silencing efficiency (30-60% depending on cell line, defined with a numeric value in the below tables). All experiments were done in triplicate.
Tables 1-7: RLuc (pDNA) or EGFP (mRNA) expression levels were normalized to Lipofectamine reagents (value=1) and expressed as fold-times signal increase. In the case of siRNA, the siRNA treated cells fluorescence was compared with siMOCK control fluorescence, while Cas9-RNP mediated knockout was measured against the fluorescence of untreated cells. In both siRNA and Cas9-RNP, values are expressed as % fluorescence reduction. Amphiphile concentration was 5 μM in all cases. All experiments were performed in triplicate.
Tables 20-25 show the mean (triplicates) percentage of GFP-silencing, accounted by fluorescence intensity decrease relative to a non-targeting siRNA (siMOCK) control, measured after the transfection of siRNA by different amphiphiles at different concentrations in a variety of cell lines. Background values, accounted by untreated control cells, were subtracted for processing.

[3] = system: ARPE19 cells expressing EGFP; assay: Cas9-RNP delivery against EGFP (gene editing, plate reader), ARPE19
Procedure: as §1
Cells expressing EGFP were seeded in a 96 well plate the day before the experiment at a concentration of 50,000 cell/mL (100 μL/w) in DMEM+10% FBS+1% Gln-Abt. For robotic library screening, the delivery of Cas9-RNP against EGFP (RNP designed to knock-out the gene encoding for the enhanced green fluorescent protein (EGFP)) was performed. For RNP assembly, 9.2 μL of crRNA and 9.2 μL of tracrRNA were mixed in 211.6 μL of Nuclease-Free Duplex Buffer (IDT), incubated for 5 min at 95° C. and slowly cooled at rt (see I. Lostalé-Seijo, et al. Peptide/Cas9 nanostructures for ribonucleoprotein cell membrane transport and gene edition, Chem. Sci., 2017). Cas9 protein was dissolved in DMEM at a final concentration of 4 μM and equal volumes of the RNA complex and Cas9 were mixed and incubated for 5 min at rt. 75 μL of the corresponding amphiphile concentrations were added to 5 μL of RNP at 2 μM. The mixture was shaken for 30 min at room temperature before the addition to the cells. The cell medium was aspirated, and cells were washed twice with PBS. Cells were covered with 30 μL of DMEM and 20 μL of the RNP/amphiphile complexes were added to the cells (final peptide concentrations=2.5, 5 and 10 μM; final Cas9-RNP concentration=50 nM) and incubated for 4 h. After the incubation, the medium was replaced by 100 μL of fresh DMEM supplemented with 10% FBS. The total EGFP fluorescence was quantified after 72 h in a plate reader (FIG. 2, Table 1 (right) and Table 6). All experiments were done in triplicate. […]
Tables 26-31 show the mean (triplicates) percentage of gene editing, accounted by GFP fluorescence intensity decrease (% of reduction), measured after the transfection of Cas9-RNP by different amphiphiles at different concentrations in a variety of cell lines. Background values, accounted by untreated control cells, were subtracted for processing.

## Ac-RHLK*RLK*RRLK*RL-NH2 (Ac-RHLKRLKRRLKRL-NH2; not fully specified (residues 4, 7, 11); printed as Ac-RHLK*RLK*RRLK*RL-NH2; also: linker on K* not given here) [13(Arg-His)]
[1]; Dodecanal, 5 μM
  mean luminescent intensity (RLuc pDNA): 237160 RLU
[1]; Dodecanal, 10 μM
  mean luminescent intensity (RLuc pDNA): 20219 RLU
[1]; Dodecanal, 15 μM
  mean luminescent intensity (RLuc pDNA): 2518 RLU
[1]; Myristoleyl, 15 μM
  mean luminescent intensity (RLuc pDNA): −246 RLU
[1]; Oleyl, 5 μM
  mean luminescent intensity (RLuc pDNA): 18755 RLU
[1]; Oleyl, 10 μM
  mean luminescent intensity (RLuc pDNA): 2608 RLU
[1]; Palmitoleyl, 5 μM
  mean luminescent intensity (RLuc pDNA): 244732 RLU
[1]; Petroselinyl, 5 μM
  mean luminescent intensity (RLuc pDNA): 105576 RLU
[1]; Petroselinyl, 15 μM
  mean luminescent intensity (RLuc pDNA): 4534 RLU
[2]; Dodecanal, 10 μM
  percentage of GFP-silencing relative to siMOCK: 28%
[2]; Dodecanal, 15 μM
  percentage of GFP-silencing relative to siMOCK: 18%
[2]; Myristoleyl, 10 μM
  percentage of GFP-silencing relative to siMOCK: 17%
[2]; Myristoleyl, 15 μM
  percentage of GFP-silencing relative to siMOCK: 5%
[2]; Oleyl, 5 μM
  percentage of GFP-silencing relative to siMOCK: 23%
[2]; Oleyl, 10 μM
  percentage of GFP-silencing relative to siMOCK: 22%
[2]; Oleyl, 15 μM
  percentage of GFP-silencing relative to siMOCK: 15%
[2]; Palmitoleyl, 15 μM
  percentage of GFP-silencing relative to siMOCK: 14%
[2]; Petroselinyl, 10 μM
  percentage of GFP-silencing relative to siMOCK: 20%
[2]; Petroselinyl, 15 μM
  percentage of GFP-silencing relative to siMOCK: 11%
[3]; Dodecanal, 5 μM
  percentage of gene editing, GFP fluorescence intensity decrease (% of reduction): 25%
[3]; Dodecanal, 15 μM
  percentage of gene editing, GFP fluorescence intensity decrease (% of reduction): 21%
[3]; Myristoleyl, 10 μM
  percentage of gene editing, GFP fluorescence intensity decrease (% of reduction): 15%
[3]; Myristoleyl, 15 μM
  percentage of gene editing, GFP fluorescence intensity decrease (% of reduction): 9%
[3]; Oleyl, 5 μM
  percentage of gene editing, GFP fluorescence intensity decrease (% of reduction): 14%
[3]; Oleyl, 10 μM
  percentage of gene editing, GFP fluorescence intensity decrease (% of reduction): −6%
[3]; Palmitoleyl, 5 μM
  percentage of gene editing, GFP fluorescence intensity decrease (% of reduction): 25%
[3]; Palmitoleyl, 10 μM
  percentage of gene editing, GFP fluorescence intensity decrease (% of reduction): −12%
[3]; Palmitoleyl, 15 μM
  percentage of gene editing, GFP fluorescence intensity decrease (% of reduction): 20%
[3]; Petroselinyl, 15 μM
  percentage of gene editing, GFP fluorescence intensity decrease (% of reduction): 15%

## Ac-RK*LRK*K*L-NH2 (Ac-RK(NHNH2)LRK(NHNH2)K(NHNH2)L-NH2; not fully specified; printed as Ac-RK*LRK*K*L-NH2; also: K*2,K*5,K*6: native or modified lysine (ε-amide to a linker)) [Peptide 7.3]
[1]; Dodecanal, 10 μM
  mean luminescent intensity (RLuc pDNA): 1049 RLU
[1]; Dodecanal, 15 μM
  mean luminescent intensity (RLuc pDNA): 1534 RLU
[1]; Myristoleyl, 5 μM
  mean luminescent intensity (RLuc pDNA): 1060 RLU
[1]; Myristoleyl, 10 μM
  mean luminescent intensity (RLuc pDNA): 7147 RLU
[1]; Myristoleyl, 15 μM
  mean luminescent intensity (RLuc pDNA): 212 RLU
[1]; Petroselinyl, 5 μM
  mean luminescent intensity (RLuc pDNA): 62932 RLU
[1]; Petroselinyl, 10 μM
  mean luminescent intensity (RLuc pDNA): 58529 RLU
[1]; Petroselinyl, 15 μM
  mean luminescent intensity (RLuc pDNA): 16332 RLU
[2]; Dodecanal, 5 μM
  percentage of GFP-silencing relative to siMOCK: 7%
[2]; Dodecanal, 10 μM
  percentage of GFP-silencing relative to siMOCK: 22%
[2]; Dodecanal, 15 μM
  percentage of GFP-silencing relative to siMOCK: 19%
[2]; Oleyl, 5 μM
  percentage of GFP-silencing relative to siMOCK: 3%
[2]; Oleyl, 15 μM
  percentage of GFP-silencing relative to siMOCK: 7%
[2]; Petroselinyl, 10 μM
  percentage of GFP-silencing relative to siMOCK: 13%
[3]; Dodecanal, 5 μM
  percentage of gene editing, GFP fluorescence intensity decrease (% of reduction): 9%
[3]; Dodecanal, 10 μM
  percentage of gene editing, GFP fluorescence intensity decrease (% of reduction): 14%
[3]; Oleyl, 5 μM
  percentage of gene editing, GFP fluorescence intensity decrease (% of reduction): 22%
[3]; Oleyl, 10 μM
  percentage of gene editing, GFP fluorescence intensity decrease (% of reduction): 35%
[3]; Oleyl, 15 μM
  percentage of gene editing, GFP fluorescence intensity decrease (% of reduction): 42%
[3]; Palmitoleyl, 5 μM
  percentage of gene editing, GFP fluorescence intensity decrease (% of reduction): 7%
[3]; Palmitoleyl, 10 μM
  percentage of gene editing, GFP fluorescence intensity decrease (% of reduction): 9%
[3]; Palmitoleyl, 15 μM
  percentage of gene editing, GFP fluorescence intensity decrease (% of reduction): 12%
[3]; Petroselinyl, 5 μM
  percentage of gene editing, GFP fluorescence intensity decrease (% of reduction): 25%
[3]; Petroselinyl, 10 μM
  percentage of gene editing, GFP fluorescence intensity decrease (% of reduction): 13%
